Results: patent US8859573B2, “Pyrimidinone and pyridinone compounds for use in the treatment of diseases or conditions mediated by Lp-PLA2” (Glaxo Group Limited, priority 2010, dated 2014)
Where a name gives a salt, the structure may show the parent alone.

Legend:
[1] = system: proinflammatory (M1) and anti-inflammatory (M2) markers; experiment: Ex vivo analysis of M1 and M2 markers in macrophages of EAE animals (realtime PCR); design: species or system rats; conditions: EAE by MBP immunization, splenic macrophages day 13 and CNS infiltrating macrophages
Protocol: A further study was carried out to study the impact of Lp-PLA2 inhibitors on modulating M1/M2 imbalance. In this study, rats were induced to develop experimental autoimmune encephalomyelitis (EAE) by immunization with myelin basic protein (MBP) antigen and treated with a known Lp-PLA2 inhibitor: 5-((9-Methoxy-4-oxo-6,7-dihydro-4H-pyrimido[6,1-a]isoquinolin-2-yl)oxy)-2-(3-(trifluoromethyl)phenoxy)benzonitrile (See PCT application no. PCT/CN2011/001597) For preventive treatment, compound administration started at day 0 whereas it started at 7 day in therapeutic treatment. Rats were subsequently monitored for symptoms of EAE. Rats were immunized with MBP to develop EAE and symptoms were monitored daily. Plasma Lp-PLA2 activity and LysoPC concentration were determined at different time points through the course of EAE.
Ex vivo analysis of proinflammatory (M1) and anti-inflammatory (M2) markers in control and compound treated EAE […]. Splenic macrophages were harvested at day 13 post MBP-immunization and assayed for expression of a variety of markers by realtime PCR. CNS infiltrating cells were harvested and macrophages were analyzed for expression of M1 and M2 markers by realtime PCR.

[2] = target: T1, recombinant human Lp-PLA2 (Homo sapiens, UniProt Q13093); experiment: Recombinant human Lp-PLA2 assay (rhLp-PLA2, PED6 assay); format: biochemical; conditions: upper limit for pIC50 in this assay is 9.3
T1 sequence (Q13093 22-441): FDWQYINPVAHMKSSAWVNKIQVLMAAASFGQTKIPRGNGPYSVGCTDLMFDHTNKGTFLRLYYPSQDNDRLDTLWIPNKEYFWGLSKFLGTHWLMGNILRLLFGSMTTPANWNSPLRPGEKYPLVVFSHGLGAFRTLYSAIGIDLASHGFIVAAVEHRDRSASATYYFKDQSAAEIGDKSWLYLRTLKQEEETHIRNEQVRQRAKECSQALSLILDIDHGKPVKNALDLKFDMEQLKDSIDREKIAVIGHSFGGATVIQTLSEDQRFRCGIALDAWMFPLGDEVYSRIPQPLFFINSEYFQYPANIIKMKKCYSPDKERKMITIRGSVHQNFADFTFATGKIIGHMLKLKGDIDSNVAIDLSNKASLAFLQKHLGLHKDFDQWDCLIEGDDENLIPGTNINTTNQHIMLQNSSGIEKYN
Description: (1) Recombinant Human Lp-PLA2 Assay (rhLp-PLA2) (Also Referred to as “PED6” Assay)
N-((6-(2,4-dinitrophenyl)amino)-hexanoyl)-2-(4,4-difluoro-5,7-dimethyl-4-bora-3a,4a-diaza-s-indacene-3-pentanoyl)-1-hexadecanoyl-sn-glycero-3-phosphoethanolamine, triethylammonium salt (PED6) is a commercially available fluorescently-labelled phospholipid, which is commercially available from Molecular Probes. There is a quenching para-nitro phenyl (PNP) group in the sn3 position and a Bodipy fluorescein (FL) group in the sn2 position. Upon cleavage with Lp-PLA2, the Bodipy F1 group is liberated and then may result in an increase in fluorescence. Inhibitors of Lp-PLA2 therefore prevent this cleavage and no fluorescent increase is observed.
The PED6 assay was run as an […] 10 μL assay. Compounds source plate was prepared by making 1:3 (by volume) serial dilution of the compounds into pure DMSO on 384-well microplate. Then, 0.01 μL of compounds on compound source plate were transferred into 384 well Greiner 784076 (black) plates by ECHO liquid dispenser. 5 μL of recombinant human Lp-PLA2 enzyme (2 nM rhLp-PLA2 in assay buffer of 50 mM HEPES, pH7.4, 150 mM NaCl, 1 mM CHAPS) was added to each well of the plate with compounds. Plates were centrifuged for 10 sec at 500 rpm. After 30 minutes preincubation, […] substrate (4 μM PED6 [from 5 mM DMSO stock] in assay buffer of 50 mM HEPES, pH7.4, 150 mM NaCl, 1 mM CHAPS) was added to 384 well Greiner 784076 (black) plates. Plates were centrifuged for 10 sec at 500 rpm. Plate was covered to protect from light and incubated for 20 min at room temperature. Plates were read for fluorescence intensity at ex: 480/em: 540 using ViewLux microplate imager. PIC50 data, curve and QC analysis was conducted by using XL fit module in Excel.

Lp-PLA2 from plasma = target: T2, Lp-PLA2 from plasma (Homo sapiens, UniProt Q13093); experiment: Lp-PLA2 human plasma assay (Thio-PAF assay); format: biochemical; conditions: pooled human plasma; read-out: pIC50 values in the thio-PAF assay (converted)
T2 construct: from tissue; host or cells: pooled human plasma
T2 sequence (Q13093 22-441): T1 sequence (Q13093 22-441)
Description: (3) Lipoprotein-Associated Phospholipase A2 (Lp-PLA2) Human Plasma Assay (Also Referred to as “Thio-PAF Assay”)
The human plasma assay utilizes a thioester analog of PAF (phosphatidylcholine), where hydrolysis yields to the formation of a phospholipid containing a free thiol group. The amount of thiol is quantitated continuously by reacting with CPM (7-diethylamino-3-(4′-maleimidylphenyl)-4-methylcoumarin), a maleimide which increases in fluoresence after Michael addition of thiols. This assay may detect the activity of Lp-PLA2 from plasma, as determined by specific inhibition by Lp-PLA2 inhibitors.
The thio-PAF assay was run as a quenched 15 μL assay. Compounds source plate was prepared by making 1:3 (by volume) serial dilution of the compounds into pure DMSO on 384-well microplate. 0.01 μL of compounds on compound source plate were transferred to 384 well Greiner 784076 (black) low-volume plates by ECHO liquid dispenser. 8 μL pooled human plasma, which was previously aliquoted and frozen, was added. Plates were centrifuged for 10 sec at 500 rpm. After 30 minutes preincubation, 2 μL of substrate (2.5 mM thio-PAF, 3.2 mM NEM (N-ethylmaleimide) [made fresh daily in DMSO], and 32 μM CPM [from a DMSO stock] in assay buffer of 50 mM HEPES, pH7.4, 150 mM NaCl, 1 mM CHAPS was added to 384 well Greiner 784076 (black) low-volume plates by BRAVO liquid handling station. Plates were centrifuged for 10 sec at 500 rpm. Plate was covered to protect from light and incubated for 2 min at room temperature. Reaction was quenched with 5 μL of 5% aqueous trifluoroacetic acid (TFA). Plates were covered to protect from light and incubated for 40 min at room temperature. Plates were read at ex: 380/em: 485 using-Envision microplate reader. PIC50 data, curve and QC analysis was conducted by using XLFit module in Excel.

SMILES	M1 markers [1]	M2 markers [1]	IC50 [2] [nM]	IC50 (Lp-PLA2 from plasma) [nM]
COc1ccc2c(c1)CCn1c-2cc(Oc2ccc(Oc3cccc(C(F)(F)F)c3)c(C#N)c2)nc1=O [5-((9-Methoxy-4-oxo-6,7-dihydro-4H-pyrimido[6,1-a]isoquinolin-2-yl)oxy)-2-(3-(trifluoromethyl)phenoxy)benzonitrile]	decrease	increase		
Cn1cc(Cn2cc(F)c(OCCc3cnc(Oc4ccc(Cl)c(C(F)(F)F)c4)c(F)c3)nc2=O)cn1 [Example 33, 4-(2-(6-(4-chloro-3-(trifluoromethyl)phenoxy)-5-fluoropyridin-3-yl)ethoxy)-5-fluoro-1-((1-methyl-1H-pyrazol-4-yl)methyl)pyrimidin-2(1H)-one]			≤ 1	≤ 100
Cn1cc(Cn2cc(F)c(OCCc3ccc(Oc4ccc(C(F)(F)F)nc4)c(F)c3)nc2=O)cn1 [Example 41, 5-fluoro-4-(3-fluoro-4-((6-(trifluoromethyl)pyridin-3-yl)oxy)phenethoxy)-1-((1-methyl-1H-pyrazol-4-yl)methyl)pyrimidin-2(1H)-one]			≤ 1	≤ 100
COc1ncc(Cn2cc(Cl)c(OCCc3ccc(Cc4ccc(Cl)c(C(F)(F)F)c4)cc3)nc2=O)cn1 [Example 45, 5-chloro-4-(4-(4-chloro-3-(trifluoromethyl)benzyl)phenethoxy)-1-((2-methoxypyrimidin-5-yl)methyl)pyrimidin-2(1H)-one]			≤ 1	≤ 100
Cn1cc(Cn2cc(F)c(OCCc3ccc(Cc4ccc(Cl)c(C(F)(F)F)c4)cc3)nc2=O)cn1 [Example 46, 4-(4-(4-chloro-3-(trifluoromethyl)benzyl)phenethoxy)-5-fluoro-1-((1-methyl-1H-pyrazol-4-yl)methyl)pyrimidin-2(1H)-one]			≤ 1	≤ 100
COc1ncc(Cn2cc(F)c(OCCc3ccc(Cc4ccc(Cl)c(C(F)(F)F)c4)cc3)nc2=O)cn1 [Example 47, 4-(4-(4-chloro-3-(trifluoromethyl)benzyl)phenethoxy)-5-fluoro-1-((2-methoxypyrimidin-5-yl)methyl)pyrimidin-2(1H)-one]			≤ 1	≤ 100
Cn1cc(Cn2cc(Cl)c(OCc3ccc(Oc4ccc(F)c(F)c4)c(F)c3)nc2=O)cn1 [Example 53, 5-chloro-4-((4-(3,4-difluorophenoxy)-3-fluorobenzyl)oxy)-1-((1-methyl-1H-pyrazol-4-yl)methyl)pyrimidin-2 (1H)-one]			≤ 1	≤ 100
Cn1cc(Cn2cc(F)c(OCCc3ccc(Oc4ccc(F)c(F)c4)c(F)c3)nc2=O)cn1 [Example 59, 4-(4-(3,4-difluorophenoxy)-3-fluorophenethoxy)-5-fluoro-1-((1-methyl-1H-pyrazol-4-yl)methyl)pyrimidin-2(1H)-one, trifluoroacetic acid salt]			≤ 1	≤ 100
Cc1cn(Cc2cnn(C)c2)c(=O)nc1OCCc1ccc(Oc2ccc(Cl)c(C(F)(F)F)c2)cc1 [Example 66, 4-(4-(4-chloro-3-(trifluoromethyl)phenoxy)phenethoxy)-5-methyl-1-((1-methyl-1H-pyrazol-4-yl)methyl)pyrimidin-2 (1H)-one]			≤ 1	≤ 100
Cc1cn(Cc2cnn(C)c2)c(=O)nc1OCCc1ccc(Oc2ccc(F)c(F)c2)nc1 [Example 67, 4-(2-(6-(3,4-difluorophenoxy)pyridin-3-yl)ethoxy)-5-methyl-1-((1-methyl-1H-pyrazol-4-yl)methyl)pyrimidin-2(1H)-one]			> 10	≤ 1000
Cc1cn(Cc2cnn(C)c2)c(=O)nc1OCc1ccc(Oc2cccc(C(F)(F)F)c2)c(C#N)c1 [Example 69, 5-(((5-methyl-1-((1-methyl-1H-pyrazol-4-yl)methyl)-2-oxo-1,2-dihydropyrimidin-4-yl)oxy)methyl)-2-(3-(trifluoromethyl)phenoxy)benzonitrile]			≤ 1	≤ 100
COc1ncc(Cn2cc(C)c(OCCc3ccc(Oc4ccc(F)c(F)c4)nc3)nc2=O)cn1 [Example 70, 4-(2-(6-(3,4-difluorophenoxy)pyridin-3-yl)ethoxy)-1-((2-methoxypyrimidin-5-yl)methyl)-5-methylpyrimidin-2(1H)-one]			> 10	≤ 1000
Cc1cn(Cc2cnn(C)c2)c(=O)nc1OCc1ccc(Oc2ccc(F)c(F)c2)c(C#N)c1 [Example 71, 2-(3,4-difluorophenoxy)-5-(((5-methyl-1-((1-methyl-1H-pyrazol-4-yl)methyl)-2-oxo-1,2-dihydropyrimidin-4-yl)oxy)methyl)benzonitrile]			≤ 1	≤ 100
Cc1cn(Cc2cnn(C)c2)c(=O)nc1OCc1ccc(Oc2ccc(F)c(F)c2)c(F)c1 [Example 72, 4-((4-(3,4-difluorophenoxy)-3-fluorobenzyl)oxy)-5-methyl-1-((1-methyl-1H-pyrazol-4-yl)methyl)pyrimidin-2(1H)-one]			≤ 1	≤ 100
